These are literature values, as cited in US20220409351A1, “ORAL APPLIANCE FOR DELIVERY OF AN ANTIMICROBIAL COMPOSITION” (Emanate Biomedical, Inc., priority 2019, published 2022).

Data set [1] concerns oral pathogenic bacteria. Particulars: against oral pathogenic bacteria.
The test system of data set [2] is oral pathogenic bacteria. Conditions: at 10 minutes.

With `[H]/N=C(\N/C(=N/[H])NCCCCCCNC(=N)NC(=N)Nc1ccc(Cl)cc1)Nc1ccc(Cl)cc1` [Chlorhexidine, chlorhexidine], the MIC in data set [1] is given as 0.0125 % w/v. Also, the MBC in data set [2] is recorded as 0.5 % w/v.
